“Also recorded” adds a separate entry of the source. *1 amine or outer side, *2 acyl side, *3 side chain or, on linkers, in order; H or OH if unused. Where a SMILES comes first, the peptide text is derived from it. Bridges are numbered along the chain shown (N, C = ends). Roman numbers before positions name the chains, in order. [ ]: non-standard residue; d: D form. Actinocin(9to1) = Cc1c2oc3c(C)ccc(C(=O)[*:1])c3nc-2c(C(=O)[*:2])c(N)c1=O; NMeV = CN[C@H](C(=O)O)C(C)C; Sar = CNCC(=O)O
What was measured:
hBMP-6 mRNA [1] = assay: Real Time RT-PCR of hBMP-6 mRNA in engineered hMSCs; format: cell-based, human; conditions: 10^−7 M E2, 24 hours
Method: (§1) hMSCs were infected in vitro at 80% confluence with Ad5-CMV-ERα, Ad5-CMV-ERβ and Ad5-CMV-LacZ at 100 pfu/cell, for 1 hour in serum-free DMEM after which DMEM supplemented with 10% FCS was added, as previously described (Bodine et al., 1997 and 1999). Efficiency of infection was estimated via β-gal activity determination, utilizing the Galacto-Light Chemiluminescent Reporter Assay System Kit (Tropix of PE Biosystems, USA). […] Five experiments, each in triplicate were conducted, standard error is represented.

ERβ [2] = molecular target: T1, ERβ (Homo sapiens, UniProt Q92731); assay: ERE-tk-luciferase reporter in hMSCs infected with adeno-ERβ; format: cell-based; set-up: expressed in transfected cells; host or cells: human mesenchymal stem cells (hMSCs), adenoviral transduction with Ad5-CMV-ERβ (long form; gift of Women Health Institute, Wyeth); conditions: hMSCs infected with adeno-ERE-tk-luc, adeno-ERβ and adeno-LacZ; 10^−8 M E2, 24 hours; over vehicle control
T1 sequence (Q92731 whole entry): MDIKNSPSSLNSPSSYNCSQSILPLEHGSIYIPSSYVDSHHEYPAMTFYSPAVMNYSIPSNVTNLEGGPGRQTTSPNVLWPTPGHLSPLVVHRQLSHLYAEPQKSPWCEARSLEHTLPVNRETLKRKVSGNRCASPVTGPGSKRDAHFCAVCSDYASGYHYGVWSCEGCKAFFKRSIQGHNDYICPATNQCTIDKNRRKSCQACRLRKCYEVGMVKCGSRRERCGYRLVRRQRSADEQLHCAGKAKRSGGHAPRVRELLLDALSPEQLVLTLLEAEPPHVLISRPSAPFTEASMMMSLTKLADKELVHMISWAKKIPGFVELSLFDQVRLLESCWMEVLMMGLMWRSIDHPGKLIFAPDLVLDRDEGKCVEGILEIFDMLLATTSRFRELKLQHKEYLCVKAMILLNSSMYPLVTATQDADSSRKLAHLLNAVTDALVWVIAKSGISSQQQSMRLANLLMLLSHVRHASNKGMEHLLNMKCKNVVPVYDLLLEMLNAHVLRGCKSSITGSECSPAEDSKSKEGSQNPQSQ

ERβ [3] = molecular target: T1, ERβ; assay: ERE-tk-Luc reporter in C3H10T1/2 cells co-transfected with ERβ; format: cell-based; set-up: expressed in transfected cells; conditions: mouse C3H10T1/2 cells co-transfected with ERβ; 10^−8 M E2, 24 hours
hBMP-6 mRNA [4] = assay: RT-PCR of hBMP-6 mRNA in engineered hMSCs (qualitative); format: cell-based, human; conditions: E2 10^−7 M, 24 hours
Method: H MSCs were infected with 100 pfu/cell adeno-LacZ, adeno-ER-α or adeno-ER-β.
RNA was isolated utilizing the TRIzol Reagent (Life Technologies, USA), according to manufacturer's protocol. RT-PCR was performed as described previously (Zhou et al., 2001). Forward and reverse primers for human ERα were: 5′-[…]-3′ (SEQ ID NO:6) and 5′-[…]-3′ (SEQ ID NO:7), respectively, and were designed according to the human ERα sequence (Green et al., 1986). Forward and reverse primers for human ERβ were: 5′-[…]-3′ (SEQ ID NO:8), and 5′-[…]-3′ (SEQ ID NO:9), respectively, designed according to human ERβ sequence (Moore et al., 1998). Primers for the hBMP-6 (458 bp) (Rickard et al., 1998), and internal control RPL19 (190 bp) (Orly et al., 1994) sequences were as described previously.
PCR conditions used for hERα and hERβ amplification were as follows: 30 cycles at 94° C. for 1 minute, 60° C. for 1 minute and 72° C. for 2 minute. Conditions used for hBMP-6 reverse transcription and PCR amplification were: incubation with RT, followed by 30 cycles of 94° C. for 1 minute, 55° C. for 1 minute and 72° C. for 2 minute in an MJ MiniCycler (MJ Research, USA). RT-PCR products of hBMP-6 were cloned into pGEM-T Easy vector (A1360, Promega), which following sequencing confirmed that the RT-PCR product was the hBMP-6 sequence.

hBMP-6 promoter = assay: hBMP-6 promoter-Luc reporter in C3H10T1/2 cells; format: cell-based, mouse; conditions: 10^−8 M E2, 24 hours
estrogen receptors (Ers) = conditions: hMSCs with ERE-tk-luciferase construct and adeno-lacZ construct; five donors
Method: as §1

hBMP-6 mRNA [5] = assay: Real-time PCR of hBMP-6 mRNA with or without Actinomycin D; format: cell-based, human; conditions: for hBMP-6 mRNA expression: treated with E2, p<0.05
Text: In order to determine whether estrogen regulates hBMP-6 at the level of transcription, we conducted Real-time PCR assays measuring hBMP-6 mRNA expression in cells pulse-chase treated with or without Actinomycin D, which inhibits […] (FIG. 8).

increase in luciferase activity (ERβ [2]) | ERE-tk-Luc luminescence (ERβ [3]) | luciferase activity following E2 treatment (estrogen receptors (Ers)) | SMILES | increase in hBMP-6 mRNA expression (hBMP-6 mRNA [1]; hMSCs infected with Adeno-ERα 100 pfu/cell) | increase in hBMP-6 mRNA expression (hBMP-6 mRNA [1]; hMSCs infected with Adeno-ERβ 100 pfu/cell) | stimulation of hBMP-6 mRNA expression (hBMP-6 mRNA [1]; hMSCs infected with Adeno-LacZ) | hBMP-6 mRNA detection by RT-PCR (hBMP-6 mRNA [4]; hMSCs transduced with adeno-ERα 100 pfu/cell) | hBMP-6 mRNA detection by RT-PCR (hBMP-6 mRNA [4]; hMSCs transduced with adeno-ERβ 100 pfu/cell) | hBMP-6 mRNA detection by RT-PCR (hBMP-6 mRNA [4]; hMSCs transduced with adeno-LacZ 100 pfu/cell) | hBMP-6 promoter-Luc luminescence (hBMP-6 promoter; mouse C3H10T1/2 cells co-transfected with ERα) | hBMP-6 promoter-Luc luminescence (hBMP-6 promoter; mouse C3H10T1/2 cells co-transfected with ERβ) | hBMP-6 mRNA expression (hBMP-6 mRNA [5]; cells transfected with ERα) | hBMP-6 mRNA expression (hBMP-6 mRNA [5]; cells transfected with ERβ) | effect of Actinomycin D on up-regulation of hBMP-6 mRNA by E2 (hBMP-6 mRNA [5]; hMSCs engineered with ERα or ERβ, pulse-chase treated)
6 fold | significant luminescence | failed to produce luciferase activity | C[C@]12CC[C@@H]3c4ccc(O)cc4CC[C@H]3[C@@H]1CC[C@@H]2O [E2, 17β-estradiol] | 3.2 fold | 2.0 fold | not | qualitatively detectable levels | qualitatively detectable levels | did not | did not result in enhanced luminescence over background levels | did not result in enhanced luminescence over background levels | significantly increased | significantly increased | –
– | – | – | Cc1c2oc3c(C)ccc(C(=O)N[C@@H]4C(=O)N[C@H](C(C)C)C(=O)N5CCC[C@H]5C(=O)N(C)CC(=O)N(C)[C@@H](C(C)C)C(=O)O[C@@H]4C)c3nc-2c(C(=O)N[C@@H]2C(=O)N[C@H](C(C)C)C(=O)N3CCC[C@H]3C(=O)N(C)CC(=O)N(C)[C@@H](C(C)C)C(=O)O[C@@H]2C)c(N)c1=O [Actinomycin D] (I: T[dV]P[Sar][NMeV] / II: T[dV]P[Sar][NMeV]; ester I:1-I:C, II:1-II:C; linker I:N-II:N via Actinocin(9to1)) | – | – | – | – | – | – | – | – | – | – | no statistical difference; also recorded: does not block
